In US20260070921A1, “COMPOUND, ENDOPLASMIC RETICULUM STRESS INHIBITOR, PHARMACEUTICAL PRODUCT, OPHTHALMIC AGENT, EYE DROPS, COMPOSITION, AND METHOD FOR PRODUCING COMPOUND” (KYOTO UNIVERSITY, priority 2022, published 2026):
pEC50: −log10 of the molar value.

What was measured:
[1] = Dynamic light scattering (DLS) of self-assemblies; assay type: physicochemical
Source text: In the graphs on the left, the vertical axis “Z-ave. (nm)” represents the average particle size. In the graphs on the right, the vertical axis “Derived Count Rate (kcps)” represents the derived count rate. The horizontal axis represents the molar concentration (PM) of PBS (pH of 7.4) and DMEM (10% FBS). Error bars represent s.d. (n=3).
“Z-ave.” represents the average size of particles. Error bars represent s.d. (n=3).
“Z-average” represents the average size of particles. Error bars represent s.d. (n=3).

[2] = system: HEK293 cells; experiment: Tunicamycin assay (cell viability under ER stress, WST-8); assay type: cell-based; set-up: key to Efficacy 5 μM (ER stress inhibition activity) / Efficacy 25 μM (ER stress inhibition activity) / Efficacy 100 μM (ER stress inhibition activity): “−” indicates no activity; “+” indicates weak activity; “++” indicates strong activity; conditions: for Efficacy 5 μM (ER stress inhibition activity): compound 5 μM 12 to 18 h; for Efficacy 5 μM (ER stress inhibition activity) / Efficacy 25 μM (ER stress inhibition activity) / Efficacy 100 μM (ER stress inhibition activity): then tunicamycin 5 μg/mL 48 h; for Efficacy 25 μM (ER stress inhibition activity): compound 25 μM 12 to 18 h; for Efficacy 100 μM (ER stress inhibition activity): compound 100 μM 12 to 18 h
Method: HEK293 cells were seeded in 96-well plates ([…]) and incubated at 37° C. for 2 hours. The medium was then replaced with 100 μL of DMEM ([…]) containing self-assembling chemicals (20 or more compounds, including compounds of the present disclosure) and 1% DMSO. After incubation with any one of compounds 1 to 6 at a given concentration for 12 to 18 hours, HEK293 cells were treated with tunicamycin (5 μg/mL) or thapsigargin (10 μM) for 48 hours, and cell viability was measured using a WST-8 cell counting kit (Dojindo Laboratories).
Produced compounds XD8 to XD28 were subjected to a tunicamycin assay in the same manner as in Examples 1 to 9. Specifically, HEK293 cells were first seeded in a 96-well plate (1×10^4 cells/well) and incubated at 37° C. for 2 hours. The medium was then replaced with 100 μL of DMEM (10% FBS) containing a self-assembling chemical (each of compounds XD8 to XD28) and […]. After incubation with any of compounds XD8 to XD28 at a concentration of 5.0 μM, 25 μM, or 100 μM for 12 to 18 hours, HEK293 cells were treated with tunicamycin (5 μg/mL) for 48 hours, followed by measuring cell viability by using a WST-8 cell counting kit (Dojindo Laboratories).

[3] = system: HEK293 cells; experiment: Cell viability assay without ER stress inducer (cytotoxicity, WST-8); assay type: cell-based; conditions: 64 h
Method: HEK293 cells were treated with compound 1, compound 4, compound 5, or compound 6 (25 μM or 100 μM, respectively) for 64 hours. The vertical axis represents relative cell viability (unit: %), and the horizontal axis represents concentration (unit: μM). Cell viability was measured using a WST-8 cell counting kit. Error bars represent s.d. (n=3).
(§1) FIG. 31 is a graph showing the results of a cell viability assay using bafilomycin A1. HEK293 cells were treated with bafilomycin A1 in DMEM (10% FBS) for 48 hours. The vertical axis represents relative cell viability (unit: %), and the horizontal axis represents the concentration of bafilomycin A1 (unit: μM). Cell viability was measured using a WST-8 cell counting kit. Error bars represent s.d. (n=3).
as §1, with “32” for “31”, “MG132.” for “bafilomycin A1.”, “MG132” for “bafilomycin A1”, “t),” for “%),”
The term “Efficacy” denotes ER (endoplasmic reticulum) stress inhibition activity. The term “Toxicity” denotes cytotoxicity. In the ER stress inhibition activity (Efficacy), “−” indicates no activity, “+” indicates weak activity, and “++” indicates strong activity. In addition, “XD7” in Table 1 below represents compound 6. That is, XD7 and compound 6 are the same compound.

[4] = system: HEK293 cells; experiment: Flow cytometry of intracellular assemblies of compound 1 with endocytosis inhibitors; assay type: cell-based; conditions: compound 1 100 μM; chloroquine 100 μM, chlorpromazine 20 μM; 16 h
Method: HEK293 cells were seeded in 12-well plates at 3×10^5 cells/well. After 2 hours of incubation at 37° C., cells were treated with compound 1 (100 μM) and 9-(2,2-dicyanovinyl)julolidine (DCVJ, 1.0 μM) in the presence or absence of chloroquine (100 μM), chlorpromazine (20 μM), and genistein ([…]) in DMEM (10% FBS) at 37° C. for 16 hours. Cells were harvested by incubation in 2 mM EDTA/PBS (pH of 7.4) for 10 minutes. Fluorescence of the cells was measured using a BD FACSAria II and analyzed with BD FACSDiva software.

[5] = system: HEK293 cells; experiment: Fluorescence imaging of self-assemblies in living cells (DCVJ); assay type: cell-based; conditions: 100 μM, DCVJ 1.0 μM, 8 h
Method: HEK293 cells were incubated with compound 1, 4, 5, or 6 (25 or 100 μM) in the presence of 1.0 μM DCVJ in DMEM (10% FBS). Fluorescence and bright-field images were taken with a CV1000 confocal microscope equipped with a 40× objective lens (Yokogawa Electric Corporation).
The ability of compound 1 and its derivatives, compounds 4 to 6, to form assemblies was also monitored in living cells. […] HEK293 cells were treated with compound 1, 4, 5, or 6 (25 μM or 100 μM) and 1.0 μM of DCVJ for 8 hours. Fluorescence and bright-field images were taken with a CV1000 confocal microscope. HEK293 cells were treated with compound 1, 4, 5, or 6 (25 or 100 μM) and DCVJ (1.0 μM) for 8 hours and observed with a confocal microscope. […] The self-assembling ability of the molecules of compound 6 may be due to its cellular activity at that concentration, even at 25 μM. […] To further support the importance of self-organization formation in cellular activity, dose-response curves for compounds 1 and 6 were determined. The biological activity of the compounds' molecular assembly is expected to be more cooperative than that of the monomer and to show a steeper dose-response curve (Reference Material 18 below). […] Compound 6 is referred to as “selfonamide” below. […] P. A High-Throughput Screen for Aggregation-Based Inhibition in a Large Compound Library. J Med Chem 2007, 50 (10), 2385-2390. https://doi.org/10.1021/jm061317y.

[6] = even at higher concentrations, tunicamycin 5.0 μg/mL 48 h

Compound	Efficacy 5 μM (ER stress inhibition activity) [2]	Efficacy 25 μM (ER stress inhibition activity) [2]	Efficacy 100 μM (ER stress inhibition activity) [2]	other results
O=c1nc2nc(Nc3ccccc3)ccn2c2c1sc1cc(F)ccc12 [compound 2]				Self-assembly activity (self-assembling ability) [1]: confirmed to have self-assembly activity; Ability to rescue cells from tunicamycin-induced ER stress ([2]; tunicamycin 5.0 μg/mL 48 h): eliminated the ability of the compounds to rescue cells
NS(=O)(=O)c1ccc(Nc2ccn3c(n2)nc(=O)c2sc4cc([N+](=O)[O-])ccc4c23)cc1 [XD9]	−	++	+	
NS(=O)(=O)c1ccc(Nc2ccn3c(n2)nc(=O)c2sc4cc5c(cc4c23)OCO5)cc1 [XD10]	−	−	−	
N=C(N)NS(=O)(=O)c1ccc(Nc2ccn3c(n2)nc(=O)c2sc4cc([N+](=O)[O-])ccc4c23)cc1 [XD20]			+	
CCCCOc1ccc2c(c1)sc1c(=O)nc3nc(Nc4ccc(S(=O)(=O)NC(=N)N)cc4)ccn3c12 [XD26]		+	++	
NS(=O)(=O)c1ccc(Nc2ccn3c(n2)nc(=O)c2sc4cc(Br)ccc4c23)cc1 [XD12]	−	+	++	
CS(=O)(=O)c1ccc(Nc2ccn3c(n2)nc(=O)c2sc4cc(F)ccc4c23)cc1 [compound 3]				Self-assembly activity (self-assembling ability) [1]: confirmed to have self-assembly activity; Ability to rescue cells from tunicamycin-induced ER stress ([2]; tunicamycin 5.0 μg/mL 48 h): eliminated the ability of the compounds to rescue cells
CCCCOc1ccc2c(c1)sc1c(=O)nc3nc(Nc4ccc(S(N)(=O)=O)cc4)ccn3c12 [XD16]	−	−	−	
O=C(O)CCCc1ccccc1 [PBA, reference compound]				Rescue from tunicamycin-induced cell death (secondary screen) [2, 6]: little effect; pEC50 ([2]; tunicamycin 5.0 μg/mL 48 h, read-out: EC50 (dose-response curve, Hill equation)): 3.32
CCCCCCOc1ccc2c(c1)sc1c(=O)nc3nc(Nc4ccc(S(N)(=O)=O)cc4)ccn3c12 [XD17]	−	−	+	
NS(=O)(=O)c1ccc(Nc2ccn3c(n2)nc(=O)c2sc4cc(F)c(F)cc4c23)cc1 [XD13]	−	++	++	
CCOc1ccc2c(c1)sc1c(=O)nc3nc(Nc4ccc(S(N)(=O)=O)cc4)ccn3c12 [XD14]	−	−	−	
NS(=O)(=O)c1ccc(Nc2ccn3c(n2)nc(=O)c2sc4ccccc4c23)cc1 [compound 4]				Cytotoxicity ([3]; up to 100 μM): no obvious cytotoxicity
CCN(CC)CCCC(C)Nc1ccnc2cc(Cl)ccc12 (centres unmarked) [chloroquine]				Reduction of average DCVJ signal (intracellular assemblies of compound 1) [4]: about 30%
N=C(N)NS(=O)(=O)c1ccc(Nc2ccn3c(n2)nc(=O)c2sc4cc(OCc5ccccc5)ccc4c23)cc1 [XD28]			++	
NS(=O)(=O)c1ccc(Nc2ccnc(N(C(=O)c3sc4cc(F)ccc4c3Cl)C(=O)c3sc4cc(F)ccc4c3Cl)n2)cc1 [TD-4C8]				Rescue from tunicamycin-induced cell death (secondary screen) ([2]; compound 50 μM, tunicamycin 5.0 μg/mL 48 h): significantly rescued cells from tunicamycin-induced cell death
COc1ccc2c(c1)sc1c(=O)nc3nc(Nc4ccc(S(=O)(=O)NC(=N)N)cc4)ccn3c12 [XD21]		++	++	
CCCOc1ccc2c(c1)sc1c(=O)nc3nc(Nc4ccc(S(N)(=O)=O)cc4)ccn3c12 [XD15]	−	−	−	
C[C@H](CCC(=O)NCCS(=O)(=O)O)[C@H]1CC[C@H]2[C@@H]3[C@@H](O)C[C@@H]4C[C@H](O)CC[C@]4(C)[C@H]3CC[C@]12C [TUDCA, reference compound]				Rescue from tunicamycin-induced cell death (secondary screen) [2, 6]: little effect
NS(=O)(=O)c1ccc(Nc2ccn3c(n2)nc(=O)c2sc4cc(OCc5ccccc5)ccc4c23)cc1 [XD18]	−	−	−	
CCCOc1ccc2c(c1)sc1c(=O)nc3nc(Nc4ccc(S(=O)(=O)NC(=N)N)cc4)ccn3c12 [XD25]		++	+	
Cc1ccc2c(c1)sc1c(=O)nc3nc(Nc4ccc(S(N)(=O)=O)cc4)ccn3c12 [compound 5]				Size of assemblies/particles in living-cell imaging [5]: 5 µm; Ability to rescue cells from tunicamycin-induced ER stress ([2]; tunicamycin 5.0 μg/mL 48 h): lost activity; Cytotoxicity ([3]; at 25 μM): no obvious cytotoxicity; Cytotoxicity ([3]; at 100 μM): slightly reduced cell viability
CN(C)CCCN1c2ccccc2Sc2ccc(Cl)cc21 [chlorpromazine]				Reduction of average DCVJ signal (intracellular assemblies of compound 1) [4]: about 30%
COc1cc2sc3c(=O)nc4nc(Nc5ccc(S(N)(=O)=O)cc5)ccn4c3c2cc1OC [XD11]	−	−	++	
NS(=O)(=O)c1ccc(Nc2ccn3c(n2)nc(=O)c2sc4cc(Cl)ccc4c23)cc1 [XD8]	−	+	++	
